{"source": "patent US20210338708A1", "about": "“METHOD FOR TREATMENT OF CORONAVIRUS INFECTION” (Renibus Therapeutics, Inc., priority 2020, published 2021)", "key": {"[1]": {"test_system": "Vero E6 cells"}, "[2]": {"test_system": "SARS-CoV-2", "format": "cell-based, SARS-CoV-2 (2019-nCoV/USA-WA1/2020 strain)", "settings": "for Plaque counts: replicates, viral replication, Vero E6, 24 h"}, "[3]": {"test_system": "yellow fever virus", "settings": "by inhibiting synthesis of NSP1; cited from earlier work"}, "[4]": {"test_system": "SARS-CoV-2", "assay": "Reduction of virus-induced cytopathic effect (visual and neutral red) within secondary assay", "format": "cell-based, SARS-CoV-2 USA_WA1/2020", "settings": "Vero 76, 1 hour pretreatment of compound and virus", "procedure": "Confluent or near-confluent cell culture monolayers of Vero 76 cells are prepared in 96-well disposable microplates the day before testing. Cells are maintained in minimum essential medium (MEM) supplemented with 5% FBS. For antiviral assays the same medium is used but with FBS reduced to 2% and supplemented with 50-μg/ml gentamicin. Compounds are dissolved in DMSO, saline or the diluent requested by the submitter. […] The test compound is prepared at four serial log 10 concentrations, usually 0.1, 1.0, 10, and […] or μM (per sponsor preference). Lower concentrations are used when insufficient compound is supplied. Five microwells are used per dilution: three for infected cultures and two for uninfected toxicity cultures. Controls for the experiment consist of six microwells that are infected and not treated (virus controls) and six that are untreated and uninfected (cell controls) on every plate. A known active drug is tested in parallel as a positive control drug using the same method as is applied for test compounds. […]\nGrowth media is removed from the cells and the test compound is applied in 0.1 ml volume to wells at 2× concentration. […] The dye content in each well is quantified using a spectrophotometer at 540 nm wavelength. […]\nActive compounds are further tested in a confirmatory assay. […] The incorporated dye content is quantified as described above to generate the EC50 and CC50 values."}, "[5]": {"test_system": "SARS-CoV-2", "format": "cell-based, SARS-CoV-2 (2019-nCoV/USA-WA1/2020 strain)", "settings": "viral replication; for % reduction relative to virus control / Virus titer, Average: 11.11 μM; for Virus titer, Rep-1 to Rep-3: 100 μM"}, "[6]": {"test_system": "Vero 76 cells"}, "[7]": {"test_system": "SARS-CoV-2", "format": "cell-based, SARS-CoV-2 (2019-nCoV/USA-WA1/2020 strain)"}, "[8]": {"test_system": "SARS-CoV-2", "assay": "Reduction of virus yield (Secondary VYR assay)", "format": "cell-based, SARS-CoV-2 USA_WA1/2020", "settings": "Vero 76, 1 hour pretreatment of compound and virus, read-out: TEST EC90", "procedure": "Active compounds are further tested in a confirmatory assay. This assay is set up similar to the methodology described above only eight half-log 10 concentrations of inhibitor are tested for antiviral activity and cytotoxicity. After sufficient virus replication occurs (3 days for SARS-CoV-2), a sample of supernatant is taken from each infected well (three replicate wells are pooled) and tested immediately or held frozen at −80° C. for later virus titer determination. After maximum CPE is observed, the viable plates are stained with neutral red dye. The incorporated dye content is quantified as described above to generate the EC50 and CC50 values.\nVirus yielded in the presence of test compound is titrated and compared to virus titers from the untreated virus controls. Titration of the viral samples (collected as described in the paragraph above) is performed by endpoint dilution (Reed, L. J., and H. Muench. “A Simple Method of Estimating Fifty Percent Endpoints.” Am J Hyg 27 (1938): 493-98.)\nSerial 1/10 dilutions of virus are made and plated into 4 replicate wells containing fresh cell monolayers of Vero 76 cells. Plates are then incubated, and cells are scored for the presence or absence of virus after a distinct CPE is observed, and the CCID50 calculated using the Reed-Muench method. […]"}, "[9]": {"test_system": "Vero E6 cell line", "settings": "Vero E6 cell line in the presence of SARS-CoV-2; NCATS/NIH data; cited from earlier work"}, "[10]": {"test_system": "dengue virus", "settings": "by inhibiting synthesis of NSP1; cited from earlier work"}, "[11]": {"test_system": "SARS-CoV-2", "format": "cell-based, SARS-CoV-2 (2019-nCoV/USA-WA1/2020 strain)", "settings": "for Plaque counts: replicates, direct inactivation, Vero E6, 24 h"}}, "note": "Where “and” joins values, the source holds several entries; their conditions need not be identical. Equal entries are not always repeated. Where two headings read alike, the source gives them in different places.", "data": [{"smiles": "C=CC1=C(C)c2cc3[n-]c(cc4[n-]c(cc5nc(cc1n2)C(C)=C5C=C)c(C)c4CCC(=O)O)c(CCC(=O)O)c3C.[Sn+2]", "note": "[RBT-9, Stannous protoporphyrin]", "values": [{"measurement": "cytopathic effect (CPE) of SnPP", "setting": "[1]", "result": "did not observe a cytopathic effect (CPE)"}, {"measurement": "Plaque counts", "setting": "[2]; 0.005 μM", "result": "363 and 342 and 223 and 294"}, {"measurement": "Plaque counts", "setting": "[2]; 0.015 μM", "result": "136 and 228 and 172 and 164"}, {"measurement": "Plaque counts", "setting": "[2]; 0.046 μM", "result": "170 and 167 and 182 and 259"}, {"measurement": "Plaque counts", "setting": "[2]; 0.14 μM", "result": "293 and 228 and 264 and 211"}, {"measurement": "Plaque counts", "setting": "[2]; 0.41 μM", "result": "292 and 243 and 309 and 304"}, {"measurement": "Plaque counts", "setting": "[2]; 1.23 μM", "result": "290 and 286 and 320 and 294"}, {"measurement": "Plaque counts", "setting": "[2]; 3.70 μM", "result": "130 and 125 (2×) and 153"}, {"measurement": "Plaque counts", "setting": "[2]; 11.11 μM", "result": "143 and 134 and 129 and 145"}, {"measurement": "Plaque counts", "setting": "[2]; 33.33 μM", "result": "89 and 99 and 78 and 79"}, {"measurement": "Plaque counts", "setting": "[2]; 100 μM", "result": "15 (2×) and 12 and 7"}, {"measurement": "EC50", "setting": "[2]; read-out: EC50, SARS-CoV-2 replication", "result": 45700, "unit": "nM"}, {"measurement": "inhibition of viral infection", "setting": "[3]", "result": "inhibit viral infection"}, {"measurement": "EC50", "setting": "[4]; neutral red, read-out: NR EC50", "result": 1500, "unit": "nM"}, {"measurement": "EC50", "setting": "[4]; visual, read-out: VIS EC50", "result": 1500, "unit": "nM"}, {"measurement": "% reduction relative to virus control", "setting": "[5]", "result": 48, "unit": "%"}, {"measurement": "Virus titer, Average", "setting": "[5]", "result": "2 × 10^4 pfu/ml"}, {"measurement": "% reduction relative to virus control", "setting": "[5]; listed as SnPP", "result": "about 48%"}, {"measurement": "Virus titer, Average", "setting": "[5]; listed as SnPP", "result": "2×10^4"}, {"measurement": "Virus titer, Rep-1 to Rep-3", "setting": "[5]", "result": "not detected"}, {"measurement": "Virus titer, Rep-1 to Rep-3", "setting": "[5]; listed as SnPP", "result": "could not be detected"}, {"measurement": "CC50", "setting": "[6]", "result": 39000, "unit": "nM"}, {"measurement": "CC50", "setting": "[6]; read-out: VIS CC50, visual, Vero 76", "result": 27000, "unit": "nM"}, {"measurement": "% reduction relative to virus control", "setting": "[7]", "result": 46.2, "unit": "%"}, {"measurement": "Virus titer, Average", "setting": "[7]", "result": "0.98×10^4 PFU/ml"}, {"measurement": "% reduction relative to virus control", "setting": "[7]; 0.411 μM, direct inactivation", "result": "No reduction"}, {"measurement": "Virus titer, Average", "setting": "[7]; 0.411 μM, direct inactivation", "result": "1.83 × 10^4 PFU/ml"}, {"measurement": "Virus titer, Rep-1 to Rep-3", "setting": "[7]; 0.411 μM, direct inactivation", "result": "2.25 × 10^4 PFU/ml and 1.75 × 10^4 PFU/ml and 1.5 × 10^4 PFU/ml"}, {"measurement": "% reduction relative to virus control", "setting": "[7]; 0.411 μM, direct inactivation, listed as SnPP", "result": "no reduction"}, {"measurement": "% reduction relative to virus control", "setting": "[7]; 3.7 μM, direct inactivation", "result": 98.6, "unit": "%"}, {"measurement": "Virus titer, Average", "setting": "[7]; 3.7 μM, direct inactivation", "result": "0.25 × 10^4 PFU/ml"}, {"measurement": "% reduction relative to virus control", "setting": "[7]; 3.7 μM, direct inactivation, listed as SnPP", "result": "About 98.6%"}, {"measurement": "EC90", "setting": "[8]", "result": 970, "unit": "nM"}, {"measurement": "CC50", "setting": "[9]", "result": "> 30000", "unit": "nM"}, {"measurement": "inhibition of viral infection", "setting": "[10]", "result": "inhibit viral infection"}, {"measurement": "Plaque counts", "setting": "[11]; 0.005 μM", "result": "203 and 304 and 260 and 236"}, {"measurement": "Plaque counts", "setting": "[11]; 0.015 μM", "result": "189 and 212"}, {"measurement": "Plaque counts", "setting": "[11]; 0.046 μM", "result": "222 and 332 and 256 and 196"}, {"measurement": "Plaque counts", "setting": "[11]; 0.14 μM", "result": "217 and 354 and 230 and 174"}, {"measurement": "Plaque counts", "setting": "[11]; 0.41 μM", "result": "259 and 194 and 205 and 235"}, {"measurement": "Plaque counts", "setting": "[11]; 1.23 μM", "result": "117 and 64 and 132 and 189"}, {"measurement": "Plaque counts", "setting": "[11]; 3.70 μM", "result": "0 (3×) and 48"}, {"measurement": "Plaque counts", "setting": "[11]; 11.11 μM", "result": 0}, {"measurement": "Plaque counts", "setting": "[11]; 33.33 μM", "result": 0}, {"measurement": "Plaque counts", "setting": "[11]; 100 μM", "result": 0}, {"measurement": "EC50", "setting": "[11]; read-out: mean EC50, direct SARS-CoV-2 inactivation", "result": 1320, "unit": "nM"}]}, {"smiles": "CCC(CC)COC(=O)[C@H](C)N[P@](=O)(OC[C@H]1O[C@@](C#N)(c2ccc3c(N)ncnn23)[C@H](O)[C@@H]1O)Oc1ccccc1", "note": "[Remdesivir, reference compound]", "values": [{"measurement": "Plaque counts", "setting": "[2]; 0.003 μM", "result": "353 and 324"}, {"measurement": "Plaque counts", "setting": "[2]; 0.008 μM", "result": 195}, {"measurement": "Plaque counts", "setting": "[2]; 0.023 μM", "result": 245}, {"measurement": "Plaque counts", "setting": "[2]; 0.07 μM", "result": "233 and 192"}, {"measurement": "Plaque counts", "setting": "[2]; 0.21 μM", "result": "212 and 200"}, {"measurement": "Plaque counts", "setting": "[2]; 0.62 μM", "result": "274 and 270"}, {"measurement": "Plaque counts", "setting": "[2]; 1.85 μM", "result": "64 and 76"}, {"measurement": "Plaque counts", "setting": "[2]; 5.56 μM", "result": 0}, {"measurement": "Plaque counts", "setting": "[2]; 16.67 μM", "result": 0}, {"measurement": "Plaque counts", "setting": "[2]; 50 μM", "result": 0}]}]}
